The record followed here is patent US9777070B2, “Anti-PTK7 antibody-drug conjugates” (Pfizer Inc., priority 2014, dated 2017).

For one experiment, the system named is H661 lung cancer cells. The experiment is described as follows: Microtubule structure by anti-tubulin immunofluorescence. Particulars: 48 hours, ADC or mAb 0-4 μg/mL, free 0101 0.1-10 nM, FIG. 22. Format: cell-based, human. As to the method:
The cells were then fixed in 3% paraformaldehyde, washed with PBS, permeabilized with 0.5% Triton-X® (Sigma Chemical) in PBS, washed with PBS, and incubated with blocking buffer (5% normal goat serum and 0.2% Tween-20 in PBS). Cells were incubated with the primary anti-α-tubulin antibody (Sigma NoT9026, clone DM1A) in blocking buffer for 1 hour at room temperature. Afterwards, the cells were washed with PBS and incubated for 30 minutes with an Alexa Fluor® 488-conjugated secondary antibody (Invitrogen Corp) and 4′,6-diamidino-2-phenylindole (DAPI) to stain the DNA. The cells were visualized on a Zeiss LSM 510 Meta confocal microscope.

The test system of another experiment is H661 cells. The experiment can be described thus: In vitro cytotoxicity, MTS, 4 days. Type of experiment: cell-based. Particulars: Homo sapiens, NCI-H661, 96 h. As to the method:
(§1) The cytotoxicity of the antibody-drug conjugate hu24-vc0101 was evaluated on cell lines that express the target PTK7. The engineered HEK293T-PTK7 over-expressing cell line was plated into a clear flat-bottom tissue culture plate (BD Falcon) at 500 cells per 180 μL of cell culture media per well. Human cancer cell lines were also tested in this assay and plated at a density that was previously determined to be optimal for each cell line according to their rate of growth (H661 1500 cells/well and H446 9600 cells/well in 150 μl). The cells were incubated overnight at 37° C. in a 5% CO2 incubator. On the following day, the hu24-vc0101 ADC and the 8.84 Ab-vc0101 ADC (negative control) were added to the cells on a 10 point concentration curve in triplicate samples starting with 3 or 10 μg/mL with 1:3 dilutions in cell culture media. The plate was incubated in a 37° C., 5% CO2 incubator for 4 days. The MTS assay (Promega CellTiter 96 Aqueous Non-Radioactive Cell Proliferation Assay) was used according to the supplier's instructions. 30 μL (H446, H661) or 40 μL (HEK293T-PTK7) of the combined MTS reagent was added to each well, and the plate was incubated in a 37° C., 5% CO2 incubator for 2 hours. The OD was determined at 490 nm with a 96-well plate reader. The average reading from wells with media alone was subtracted from the readings of wells with cells to control for background OD.

The test system of another experiment is H446 cells. The experiment is described as follows: In vitro cytotoxicity, MTS, 4 days. Particulars: Homo sapiens, NCI-H446, 96 h. Format: cell-based. As to the method:
as §1

SMILES strings stand for the structures. Values after ≈ are worked out from the molar mass of the structure shown. Square brackets hold non-standard residues; d marks the D form. Peptide text beside a SMILES is read from it. * marks the point of attachment. Dolaproine = CO[C@@H]([C@@H]1CCCN1)[C@@H](C)C(=O)O; Dil = CC[C@H](C)[C@H](NC)[C@@H](CC(=O)O)OC; Doe = c1ccc(C[C@H](N*)c2nccs2)cc1; Aib = CC(C)(N)C(=O)O

By IC50 is commonly meant the midpoint of a concentration-inhibition curve. For `CC[C@H](C)[C@@H]([C@@H](CC(=O)N1CCC[C@H]1[C@H](OC)[C@@H](C)C(=O)N[C@@H](Cc1ccccc1)c1nccs1)OC)N(C)C(=O)[C@@H](NC(=O)C(C)(C)N)C(C)C` [compound 0101, 2-methylalanyl-N-[(3R,4S,5S)-3-methoxy-1-{(2S)-2-[(1R,2R)-1-methoxy-2-methyl-3-oxo-3-{[(1S)-2-phenyl-1-(1,3-thiazol-2-yl)ethyl]amino}propyl]pyrrolidin-1-yl}-5-methyl-1-oxoheptan-4-yl]-N-methyl-L-valinamide] (H-[Aib]V[Dil][Dolaproine]-Doe), the “effect on microtubule structure and cell cycle” value with H661 lung cancer cells was “disrupted microtubule structure and led to G2/M cell cycle arrest”. Further, the IC50 with H661 cells stood at 0.33 ng/mL (≈ 0.444 nM); in the experiment with H446 cells, 0.59 ng/mL (≈ 0.794 nM).
